Read-outs that look alike come from different tables or passages of the source.
Key:
[1] = Description: Surface area data were collected using nitrogen absorption on a BET Micrometics Gemini V (11-point BET analysis) analyzer. The samples were outgassed at 25° C. under vacuum for at least 2 hours. SRM 1899 and SRM 1900 were used as the calibration standards.
[2] = remark: listed apart in the source
Source text: Samples were submitted to Particle Technology Labs (PTL), Downers Grove, Ill., for bulk and tapped density analyses.

[3] = remark: listed apart in the source
Source text: Particle size data was acquired using a Malvern Instruments MS2000 equipped with a Hydro2000μP dispersion unit. Data was collected and analyzed with Mastersizer 2000v.5.1 software, using volume based measurements. NIST traceable glass beads were used as the reference standard.
The final method conditions selected for determining the particle size of BL-1021 fumarate salts were as follows:
Dispersant: silicone oil;
Dispersant refractive index: 1.403;
The measurement of particle size of all lots was performed using the same method conditions (silicone oil as a dispersing medium, a pump speed of 1750 rpm).

[4] = batches after milling, listed as CC-2190.0-20.1
[5] = batches after milling, listed as CC-2190.0-21.1
[6] = batches after milling, listed as CC-2190.0-23.1
[7] = batches after milling, listed as CC-2562.0-01.1
[8] = batches before and after milling
[9] = silicone oil dispersing medium, pump speed 1750 rpm, volume based, text b315 speaks of μm

In the case of `CN(CCC=C1c2ccccc2CCc2ccccc21)C(=O)CCCN.O=C(O)/C=C/C(=O)O` [BL-1021 fumarate salt, nortriptyline-4-aminobutyrate fumarate], the “BET surface area, Results” value ([1]; batch before milling) is reported as 6.58 m^2/g, the “BET surface area, Results” value [1, 4] is reported as 8.43 m^2/g and the “BET surface area, Results” value [1, 5] is reported as 10.84 m^2/g. For the same compound, the “BET surface area, Results” value [1, 6] was 11.84 m^2/g, the “BET surface area, Results” value [1, 7] was 7.45 m^2/g and the Bulk density ([2]; batch before milling) was 0.29 g/mL. For the same compound, the Tapped density ([2]; batch before milling) was 0.42 g/mL, the Bulk density [2, 4] was 0.22 g/mL and the Tapped density [2, 4] was 0.35 g/mL. For the same compound, the Bulk density [2, 5] was 0.18 g/mL, the Tapped density [2, 5] was 0.31 g/mL and the Bulk density [2, 6] was 0.25 g/mL. For the same compound, the Tapped density [2, 6] was 0.39 g/mL, the Bulk density [2, 7] was 0.19 g/mL and the Tapped density [2, 7] was 0.36 g/mL. For the same compound, the “bulk density (range over batches)” value [2, 8] was 0.18-0.29 gram/ml, the “tapped density (range over batches)” value [2, 8] was 0.31-0.42 gram/ml and the “particle size distribution d10” value [3, 9] was 7.0. For the same compound, the “particle size distribution d50” value [3, 9] was 93.9, the “particle size distribution d90” value [3, 9] was 220.8 and the “D90 (as stated in text, FIG. 6)” value ([3]; silicone oil, 1750 rpm) was 200±25%. The “particle size up to (upper end of bimodal distribution, FIG. 6)” value ([3]; silicone oil, 1750 rpm, fine tail below 1 μm) was ≤ 400 μm.

From patent US8916610B2, “Acid addition salt of a nortriptyline-GABA conjugate and a process of preparing same” (Ramot at Tel-Aviv University Ltd., priority 2010, dated 2014)
